Results on 15 compounds are retold here after PMC9059125 (Journal of Medicinal Chemistry, 2022).

The target in data set [1] is T1, human oxytocin receptor (OTR) (Homo sapiens, UniProt P30559).
T1 construct: NIMH PDSP (data provider)
T1 sequence (P30559 1-389): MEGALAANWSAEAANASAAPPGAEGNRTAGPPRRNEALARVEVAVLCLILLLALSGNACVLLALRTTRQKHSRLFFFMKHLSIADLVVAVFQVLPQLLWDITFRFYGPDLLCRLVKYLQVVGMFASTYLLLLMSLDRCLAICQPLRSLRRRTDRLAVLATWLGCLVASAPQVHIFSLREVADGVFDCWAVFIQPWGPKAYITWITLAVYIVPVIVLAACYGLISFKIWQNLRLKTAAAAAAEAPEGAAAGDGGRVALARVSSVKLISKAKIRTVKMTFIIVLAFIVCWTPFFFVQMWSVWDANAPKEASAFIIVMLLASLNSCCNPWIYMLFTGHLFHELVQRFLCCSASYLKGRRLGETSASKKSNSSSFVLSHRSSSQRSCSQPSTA
The data set can be described thus: NIMH PDSP FLIPR-TETRA Ca2+-mobilization assay. It counts as cell-based.

The conditions of data set [2]: simulated gi fluid, pH 6.8.
The conditions of data set [3]: simulated gi fluid, pH 1.2.
For data set [4] the following is noted: simulated gi fluid; cited from earlier work.
Another data set has as its target T2, hOTR (Homo sapiens, UniProt P30559).
T2 construct: expressed in transfected cells; host or cells: COS-1 cells (ATCC), transient transfection with FuGENE HD
T2 sequence (P30559 1-389): T1 sequence (P30559 1-389)
The data set can be described thus: cell-based.

A short description of another data set: in vitro. The note with it: pig, simulated gi fluid, pH 6.8.

Like-named read-outs stand apart in the source and are kept apart here. *1 amine or outer side, *2 acyl side, *3 side chain or, on linkers, in order; H or OH if unused. Where a SMILES comes first, the peptide text is derived from it. Bridges are numbered along the chain shown (N, C = ends). X1 = O=C(CCC[*:2])[*:1]

As a reminder, the EC50 is the concentration giving half of the maximal effect. Turning to `CC[C@H](C)[C@@H]1NC(=O)[C@H](Cc2ccc(O)cc2)NC(=O)[C@@H](N)CSSC[C@@H](C(=O)N2CCC[C@H]2C(=O)N[C@@](C)(CC(C)C)C(=O)NCC(N)=O)NC(=O)[C@H](CC(N)=O)NC(=O)[C@H](CCC(N)=O)NC1=O` [(Cα-Me)L^8OT], in data set [1], the half-maximal effective concentration (EC50) was found to be 3.8 ± 2.7 nM, the “Emax ± SEM OTR” value turned out to be 105 ± 11 and the “bioactivity at OTR compared to native OT” value is “equipotent to native OT”. Also, the “t1/2 SIF” value in data set [2] (pig) is given as 4.4 ± 0.3 h.
On to `CC[C@H](C)[C@@H]1NC(=O)[C@H](Cc2ccc(O)cc2)NC(=O)[C@@H](N)CSSC[C@@H](C(=O)N2CCC[C@H]2C(=O)N[C@H](CC(=O)NCC(N)=O)CC(C)C)NC(=O)[C@H](CC(N)=O)NC(=O)[C@H](CCC(N)=O)NC1=O` [(β^3-homo)L^8OT], for which the “t1/2 SIF” value in data set [2] (pig) is 3.6 ± 0.1 h.
Consider `CC[C@H](C)[C@@H]1NC(=O)[C@H](Cc2ccc(OC)cc2)NC(=O)CCCSC[C@@H](C(=O)N2CCC[C@H]2C(=O)N[C@@H](CC(C)C)C(=O)NCC(N)=O)NC(=O)[C@H](CC(N)=O)NC(=O)[C@H](CCC(N)=O)NC1=O` [Carbetocin, reference compound] (Y(Me)IQNCPLG-NH2; linker N-5 via X1), for which, in data set [3], the “t1/2 SGF” value is recorded as above 24 h. Besides, in data set [2] (pig), the “t1/2 SIF” value is 0.217 ± 0.017 h.
`NC(=O)CC[C@@H]1NC(=O)[C@H](Cc2ccccc2)NC(=O)[C@H](Cc2ccc(O)cc2)NC(=O)CCSSC[C@@H](C(=O)N2CCC[C@H]2C(=O)N[C@H](CCCN=C(N)N)C(=O)NCC(N)=O)NC(=O)[C@H](CC(N)=O)NC1=O` [Desmopressin]: the “reported t1/2 in SIF” value in data set [4] was 0.5 h.
`CC(C)C[C@@H]1NC(=O)[C@H](CCC(=O)O)NC(=O)[C@@H](NC(=O)[C@H](CCC(=O)O)NC(=O)[C@H](CC(=O)O)NC(=O)[C@H](N)CC(N)=O)CSSC[C@@H]2NC(=O)[C@H](C)NC(=O)[C@H](C(C)C)NC(=O)[C@H](CC(N)=O)NC(=O)[C@H](C(C)C)NC(=O)[C@H](CSSC[C@@H](C(=O)N[C@H](CC(C)C)C(=O)O)NC(=O)CNC(=O)[C@H]([C@@H](C)O)NC2=O)NC1=O` [Dolcanatide, reference compound]: the “t1/2 SGF” value in data set [3] was above 24 h. For the same compound, the “t1/2 SIF” value in data set [2] is above 24 h.
Turning to `CC[C@H](C)[C@@H]1NC(=O)[C@H](Cc2ccc(O)cc2)NC(=O)[C@@H](N)CSSC[C@@H](C(=O)N2CCC[C@H]2C(=O)N[C@@H](CC(C)C)C(=O)NNC(N)=O)NC(=O)[C@H](CC(N)=O)NC(=O)[C@H](CCC(N)=O)NC1=O` [G^9(aza)OT], in data set [1], the EC50 stood at 2.24 ± 0.63 nM and the “Emax ± SEM OTR” value is given as 111 ± 6. In addition, the “t1/2 SIF” value in data set [2] is below 0.05 h.
`CC[C@H](C)[C@@H]1NC(=O)[C@H](Cc2ccc(O)cc2)NC(=O)[C@@H]2CSSC[C@@H]3NC(=O)[C@H](C(C)C)NC(=O)[C@@H]4CCCN4C(=O)[C@H](Cc4c[nH]c5ccccc45)NC(=O)[C@H](CO)NC(=O)[C@@H]4CSSC[C@H](NC(=O)[C@H]([C@@H](C)O)NC(=O)[C@H](CCC(=O)O)NC(=O)CNC(=O)[C@H](CSSC[C@H](NC(=O)[C@H](CC(N)=O)NC(=O)[C@H](CCC(N)=O)NC1=O)C(=O)N[C@@H]([C@@H](C)O)C(=O)N4)NC(=O)[C@H](C(C)C)NC(=O)[C@@H]1CCCN1C(=O)[C@H](CC(C)C)NC(=O)CNC(=O)[C@H](CC(N)=O)NC(=O)[C@H](CCCNC(=N)N)NC(=O)[C@H]([C@@H](C)O)NC3=O)C(=O)N[C@@H](C(C)C)C(=O)NCC(=O)NCC(=O)N[C@@H]([C@@H](C)O)C(=O)N2` [KB1(OT^[2-5])] gave an EC50 on hOTR above 10000 nM. In data set [2], the “t1/2 SIF” value is reported as above 24 h.
As for `CC[C@H](C)[C@@H]1NC(=O)[C@H](Cc2ccc(O)cc2)NC(=O)[C@@H]2CSSC[C@@H]3NC(=O)[C@H](C(C)C)NC(=O)[C@@H]4CCCN4C(=O)[C@H](Cc4c[nH]c5ccccc45)NC(=O)[C@H](CO)NC(=O)[C@@H]4CSSC[C@H](NC(=O)[C@H]([C@@H](C)O)NC(=O)[C@H](CCC(=O)O)NC(=O)CNC(=O)[C@H](CSSC[C@H](NC(=O)[C@H](CC(N)=O)NC(=O)[C@H]([C@@H](C)O)NC1=O)C(=O)N[C@@H]([C@@H](C)O)C(=O)N4)NC(=O)[C@H](C(C)C)NC(=O)[C@@H]1CCCN1C(=O)[C@H](CC(C)C)NC(=O)CNC(=O)[C@H](CC(N)=O)NC(=O)[C@H](CCCNC(=N)N)NC(=O)[C@H]([C@@H](C)O)NC3=O)C(=O)N[C@@H](C(C)C)C(=O)NCC(=O)NCC(=O)N[C@@H]([C@@H](C)O)C(=O)N2` [KB1(T^4G^7OT^[2-5])], the EC50 at hOTR is above 10000 nM. The “t1/2 SIF” value in data set [2] is reported as above 24 h.
The like results for `CC[C@H](C)[C@@H]1NC(=O)[C@H](Cc2ccc(O)cc2)NC(=O)[C@@H]2CSSC[C@@H]3NC(=O)[C@H]([C@@H](C)CC)NC(=O)[C@@H]4CCCN4C(=O)[C@H](Cc4c[nH]c5ccccc45)NC(=O)[C@H](CO)NC(=O)[C@@H]4CSSC[C@H](NC(=O)[C@H]([C@@H](C)O)NC(=O)[C@H](CCC(=O)O)NC(=O)CNC(=O)[C@H](CSSC[C@H](NC(=O)[C@H](CC(N)=O)NC(=O)[C@H]([C@@H](C)O)NC1=O)C(=O)N[C@@H]([C@@H](C)O)C(=O)N4)NC(=O)[C@H](C(C)C)NC(=O)[C@@H]1CCCN1C(=O)[C@H](CC(C)C)NC(=O)CNC(=O)[C@H](CC(N)=O)NC(=O)[C@H](CCCNC(=N)N)NC(=O)[C@H](CCCCN)NC3=O)C(=O)N[C@@H]([C@@H](C)O)C(=O)N[C@@H](CC(C)C)C(=O)NCC(=O)N[C@@H]([C@@H](C)O)C(=O)N2` [KB7(T^4G^7OT^[2-5])] were, in that order, above 10000 nM and above 24 h.
With `CC(C)C[C@@H]1NC(=O)CNC(=O)[C@H](CC(N)=O)NC(=O)[C@H](CCCNC(=N)N)NC(=O)[C@H]([C@@H](C)O)NC(=O)[C@@H]2CSSC[C@@H]3NC(=O)[C@H]([C@@H](C)O)NC(=O)CNC(=O)CNC(=O)[C@H](C(C)C)NC(=O)[C@@H]4CSSC[C@H](NC(=O)[C@H]([C@@H](C)O)NC(=O)[C@H](CSSC[C@H](NC(=O)[C@H](C(C)C)NC(=O)[C@@H]5CCCN5C1=O)C(=O)NCC(=O)N[C@@H](CCC(=O)O)C(=O)N[C@@H]([C@@H](C)O)C(=O)N4)NC(=O)CNC(=O)[C@@H]1CCCN1C(=O)[C@H]([C@@H](C)O)NC(=O)[C@H](CC(N)=O)NC3=O)C(=O)N[C@@H](CO)C(=O)N[C@@H](Cc1c[nH]c3ccccc13)C(=O)N1CCC[C@H]1C(=O)N[C@@H](C(C)C)C(=O)N2` [Kalata B1, reference compound], the “t1/2 SGF” value in data set [3] is above 24 h. Moreover, the “t1/2 SIF” value in data set [2] is above 24 h.
Consider `C[C@@H]1NC(=O)[C@@H]2CCCN2C(=O)[C@H](CC(N)=O)NC(=O)[C@@H]2CSSC[C@H](N)C(=O)N[C@H]3CSSC[C@H](NC1=O)C(=O)N[C@@H]([C@@H](C)O)C(=O)NCC(=O)N[C@H](C(=O)N[C@@H](Cc1ccc(O)cc1)C(=O)O)CSSC[C@H](NC(=O)[C@H](Cc1ccc(O)cc1)NC(=O)[C@H](CCC(=O)O)NC3=O)C(=O)N2` [Linaclotide] (HELM PEPTIDE1{C.C.E.Y.C.C.N.P.A.C.T.G.C.Y}$PEPTIDE1,PEPTIDE1,1:R3-6:R3|PEPTIDE1,PEPTIDE1,2:R3-10:R3|PEPTIDE1,PEPTIDE1,5:R3-13:R3$$$V2.0), for which the “t1/2 SGF” value in data set [3] is recorded as above 24 h. In addition, in data set [4], the “reported t1/2 in SIF” value is 0.267 h. In data set [2] (pig), the “t1/2 SIF” value was 0.9 ± 0.05 h.
For `CC[C@H](C)[C@@H]1NC(=O)[C@H](Cc2ccc(O)cc2)NC(=O)[C@@H](N)CSSC[C@@H](C(=O)N2CCC[C@H]2C(=O)N[C@@H](CC(C)C)C(=O)NCC(N)=O)NC(=O)[C@H](CC(N)=O)NC(=O)[C@H](CCC(N)=O)NC1=O` [Oxytocin, reference compound], the “t1/2 SGF” value in data set [3] is recorded as above 24 h. The “t1/2 SIF” value in data set [2] (pig) is 0.13 ± 0.017 h.
On to `CC(C)C[C@H](NC(=O)[C@@H]1CSSC[C@@H]2NC(=O)[C@H](CC(C)C)NC(=O)[C@H](CCC(=O)O)NC(=O)[C@@H](NC(=O)[C@H](CCC(=O)O)NC(=O)[C@H](CC(=O)O)NC(=O)[C@@H](N)CC(N)=O)CSSC[C@H](NC(=O)[C@H](C)NC(=O)[C@H](C(C)C)NC(=O)[C@H](CC(N)=O)NC(=O)[C@H](C(C)C)NC2=O)C(=O)N[C@@H]([C@@H](C)O)C(=O)NCC(=O)N1)C(=O)O` [Plecanatide, reference compound], for which, in data set [3], the “t1/2 SGF” value is above 24 h. The “t1/2 SIF” value in data set [2] (pig) is 0.083 ± 0.017 h.
By half-life is commonly meant how long it takes for the measured level to halve. Higher therefore signals slow decline. For `CC[C@H](C)[C@@H]1NC(=O)[C@@H]2CSSC[C@H](NC(=O)[C@H](CCCNC(=N)N)NC(=O)[C@@H]3CSSC[C@H](NC1=O)C(=O)N[C@@H]([C@@H](C)O)C(=O)N[C@@H](CCCNC(=N)N)C(=O)NCC(=O)N[C@@H](Cc1ccccc1)C(=O)N3)C(=O)N[C@@H](CC(C)C)C(=O)N[C@H]1CSSC[C@H](NC(=O)[C@H](C(C)C)NC(=O)CNC(=O)[C@H](CCCNC(=N)N)NC(=O)[C@H](CCCNC(=N)N)NC1=O)C(=O)N[C@@H](CCCNC(=N)N)C(=O)N2` [RTD-1] (HELM PEPTIDE1{G.F.C.R.C.L.C.R.R.G.V.C.R.C.I.C.T.R}$PEPTIDE1,PEPTIDE1,3:R3-16:R3|PEPTIDE1,PEPTIDE1,5:R3-14:R3|PEPTIDE1,PEPTIDE1,7:R3-12:R3|PEPTIDE1,PEPTIDE1,1:R1-18:R2$$$V2.0), the “t1/2 SGF” value in data set [3] is given as 2.2 ± 0.3 h. For the same compound, the half-life in the data set “in vitro” is below 3 min. Moreover, the “t1/2 SIF” value in data set [2] was 0.05 ± 0.017 h.
As for `NC(=O)CC[C@@H]1NC(=O)[C@H](Cc2ccccc2)NC(=O)[C@H](Cc2ccc(O)cc2)NC(=O)[C@@H](N)CSSC[C@@H](C(=O)N2CCC[C@H]2C(=O)N[C@@H](CCCN=C(N)N)C(=O)NCC(N)=O)NC(=O)[C@H](CC(N)=O)NC1=O` [Vasopressin, reference compound], in data set [3], the “t1/2 SGF” value was above 24 h. In addition, the “t1/2 SIF” value in data set [2] is below 0.05 h.
